# PubChem BioAssay (NCI)
#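 96-well plates; 48 h exposure; 5 concentrations. Endpoints by linear interpolation between flanking doses. Not reached: highest tested concentration assigned. GI50 marks 50% less growth. TGI marks complete inhibition of growth.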
# What was measured:
# Assay in all cases: NCI tumour cell line growth inhibition, 48 h
# NCI-H23 lung = tested on: NCI-H23 lung
# NCI-H460 lung = tested on: NCI-H460 lung
# NCI-H522 lung = tested on: NCI-H522 lung
# NCI/ADR-RES ovarian = tested on: NCI/ADR-RES ovarian
# OVCAR-3 ovarian = tested on: OVCAR-3 ovarian
# OVCAR-4 ovarian = tested on: OVCAR-4 ovarian
# OVCAR-5 ovarian = tested on: OVCAR-5 ovarian
# OVCAR-8 ovarian = tested on: OVCAR-8 ovarian
# PC-3 prostate = tested on: PC-3 prostate
# RPMI-8226 leukemia = tested on: RPMI-8226 leukemia
# RXF 393 renal = tested on: RXF 393 renal
# SF-268 CNS = tested on: SF-268 CNS
# SF-539 CNS = tested on: SF-539 CNS
# SK-MEL-2 melanoma = tested on: SK-MEL-2 melanoma
# SK-MEL-28 melanoma = tested on: SK-MEL-28 melanoma
# SK-MEL-5 melanoma = tested on: SK-MEL-5 melanoma
# SK-OV-3 ovarian = tested on: SK-OV-3 ovarian
# SN12C renal = tested on: SN12C renal
# SNB-19 CNS = tested on: SNB-19 CNS
# SNB-75 CNS = tested on: SNB-75 CNS
# SR leukemia = tested on: SR leukemia
# SW-620 colon = tested on: SW-620 colon
# T-47D breast = tested on: T-47D breast
# TK-10 renal = tested on: TK-10 renal
# U251 CNS = tested on: U251 CNS
# UACC-257 melanoma = tested on: UACC-257 melanoma
# UACC-62 melanoma = tested on: UACC-62 melanoma
# UO-31 renal = tested on: UO-31 renal
structure (smiles),measurement,setting,value
COc1cc(-c2nn(C(=O)NS(=O)(=O)c3ccc(C)cc3)cc2-c2ccncc2)ccc1Cl,GI50,NCI-H23 lung,5.27 µM
same,TGI,NCI-H23 lung,28.9 µM
same,GI50,NCI-H460 lung,13.3 µM
same,TGI,NCI-H460 lung,38.5 µM
same,GI50,NCI-H522 lung,10.4 µM
same,TGI,NCI-H522 lung,26.7 µM
same,GI50,NCI/ADR-RES ovarian,3.93 µM
same,TGI,NCI/ADR-RES ovarian,80.6 µM
same,GI50,OVCAR-3 ovarian,25.2 µM
same,TGI,OVCAR-3 ovarian,> 100 µM
same,GI50,OVCAR-4 ovarian,3.26 µM
same,TGI,OVCAR-4 ovarian,27.3 µM
same,GI50,OVCAR-5 ovarian,5.53 µM
same,TGI,OVCAR-5 ovarian,39.4 µM
same,GI50,OVCAR-8 ovarian,2.02 µM
same,TGI,OVCAR-8 ovarian,93.6 µM
same,GI50,PC-3 prostate,16.1 µM
same,TGI,PC-3 prostate,> 100 µM
same,GI50,RPMI-8226 leukemia,15.5 µM
same,TGI,RPMI-8226 leukemia,> 100 µM
same,GI50,RXF 393 renal,2.67 µM
same,TGI,RXF 393 renal,12 µM
same,GI50,SF-268 CNS,4.32 µM
same,TGI,SF-268 CNS,> 100 µM
same,GI50,SF-539 CNS,3.61 µM
same,TGI,SF-539 CNS,14.7 µM
same,GI50,SK-MEL-2 melanoma,4.65 µM
same,TGI,SK-MEL-2 melanoma,15.4 µM
same,GI50,SK-MEL-28 melanoma,3.51 µM
same,TGI,SK-MEL-28 melanoma,13.1 µM
same,GI50,SK-MEL-5 melanoma,4.58 µM
same,TGI,SK-MEL-5 melanoma,17.1 µM
same,GI50,SK-OV-3 ovarian,3.38 µM
same,TGI,SK-OV-3 ovarian,13.6 µM
same,GI50,SN12C renal,3.02 µM
same,TGI,SN12C renal,24.1 µM
same,GI50,SNB-19 CNS,4.9 µM
same,TGI,SNB-19 CNS,38.5 µM
same,GI50,SNB-75 CNS,1.69 µM
same,TGI,SNB-75 CNS,7.52 µM
same,GI50,SR leukemia,5.1 µM
same,TGI,SR leukemia,40.9 µM
same,GI50,SW-620 colon,20.4 µM
same,TGI,SW-620 colon,> 100 µM
same,GI50,T-47D breast,6.34 µM
same,TGI,T-47D breast,31.2 µM
same,GI50,TK-10 renal,4.9 µM
same,TGI,TK-10 renal,19.8 µM
same,GI50,U251 CNS,6.16 µM
same,TGI,U251 CNS,28.5 µM
same,GI50,UACC-257 melanoma,12.1 µM
same,TGI,UACC-257 melanoma,60.2 µM
same,GI50,UACC-62 melanoma,2.28 µM
same,TGI,UACC-62 melanoma,10.2 µM
same,GI50,UO-31 renal,3.74 µM
same,TGI,UO-31 renal,16 µM
